Assay results taken from patent US11078197B2, “5-membered and bicyclic heterocyclic amides as inhibitors of rock” (BRISTOL-MYERS SQUIBB COMPANY, priority 2017, dated 2021).

molecular target: ROCK2 (Homo sapiens (Human), UniProt O75116); assay: ROCK2 assay (peptide phosphorylation, LABCHIP 3000 Reader); assay type: biochemical; conditions: 5 μM ATP, 1.5 μM peptide substrate, dose-response
Protocol: After incubation, the reaction was terminated by the addition of EDTA and the phosphorylated and non-phosphorylated peptides separated using a LABCHIP®3000 Reader (Caliper Life Sciences). […] Compounds were tested in dose-response format, and the inhibition of kinase activity was calculated at each concentration of compound. […] Representative Examples were tested in the ROCK2 assay described above and found having ROCK2 inhibitory activity.

Chain of ROCK2 (O75116 whole entry, species assumed): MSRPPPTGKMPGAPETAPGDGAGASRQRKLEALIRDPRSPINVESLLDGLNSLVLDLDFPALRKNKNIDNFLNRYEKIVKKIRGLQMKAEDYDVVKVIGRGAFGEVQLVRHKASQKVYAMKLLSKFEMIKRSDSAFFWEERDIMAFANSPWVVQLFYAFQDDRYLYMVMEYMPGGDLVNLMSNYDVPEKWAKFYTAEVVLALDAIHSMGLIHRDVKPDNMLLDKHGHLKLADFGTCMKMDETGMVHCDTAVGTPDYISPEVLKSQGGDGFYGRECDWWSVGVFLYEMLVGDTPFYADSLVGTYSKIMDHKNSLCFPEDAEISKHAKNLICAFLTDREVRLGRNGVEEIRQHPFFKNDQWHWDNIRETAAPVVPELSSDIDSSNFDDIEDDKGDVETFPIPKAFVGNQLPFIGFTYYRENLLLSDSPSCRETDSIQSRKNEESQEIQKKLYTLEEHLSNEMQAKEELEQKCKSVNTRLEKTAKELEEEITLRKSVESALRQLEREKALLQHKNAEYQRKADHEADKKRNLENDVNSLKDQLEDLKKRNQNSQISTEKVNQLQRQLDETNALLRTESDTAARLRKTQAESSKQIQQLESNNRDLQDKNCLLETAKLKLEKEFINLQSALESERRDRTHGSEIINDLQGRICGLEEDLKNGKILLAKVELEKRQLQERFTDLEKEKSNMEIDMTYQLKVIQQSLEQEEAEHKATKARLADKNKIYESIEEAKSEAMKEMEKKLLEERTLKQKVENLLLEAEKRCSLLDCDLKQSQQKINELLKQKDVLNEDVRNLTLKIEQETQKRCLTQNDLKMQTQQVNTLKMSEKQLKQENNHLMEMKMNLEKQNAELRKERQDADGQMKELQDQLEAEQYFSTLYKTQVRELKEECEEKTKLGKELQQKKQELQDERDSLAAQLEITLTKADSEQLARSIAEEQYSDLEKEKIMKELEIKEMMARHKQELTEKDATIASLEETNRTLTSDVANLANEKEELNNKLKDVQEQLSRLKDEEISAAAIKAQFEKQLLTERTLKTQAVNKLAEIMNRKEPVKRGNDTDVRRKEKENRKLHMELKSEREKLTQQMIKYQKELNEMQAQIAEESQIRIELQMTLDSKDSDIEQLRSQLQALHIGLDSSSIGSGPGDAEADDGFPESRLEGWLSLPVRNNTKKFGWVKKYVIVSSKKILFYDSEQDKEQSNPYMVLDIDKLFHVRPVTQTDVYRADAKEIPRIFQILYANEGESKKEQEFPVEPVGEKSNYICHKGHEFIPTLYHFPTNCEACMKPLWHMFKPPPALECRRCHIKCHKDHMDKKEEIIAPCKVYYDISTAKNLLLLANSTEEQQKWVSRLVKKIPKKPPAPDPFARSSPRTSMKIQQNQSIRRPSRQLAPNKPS

IC50	Compound
1160 nM	Cc1nn(C)c2nc(OC3CC4(CC(NC(=O)c5cnn6cc(OCC(C)(C)O)ccc56)C4)C3)c(C(N)=O)cc12 (stereo not shown) [Example 73, 6-({6-[6-(2-hydroxy-2-methylpropoxy)pyrazolo [1,5-a]pyridine-3-amido]spiro[3.3]heptan-2-yl}oxy)-1,3-dimethyl-1H-pyrazolo[3,4-b]pyridine-5-carboxamide]
26.7 nM	NC(=O)c1cc2sccc2nc1OC1CC2(CC(NC(=O)c3cnn4ccccc34)C2)C1 (stereo not shown) [Example 75, 5-[(6-{pyrazolo[1,5-a]pyridine-3-amido}spiro[3.3]heptan-2-yl)oxy]thieno[3,2-b]pyridine-6-carboxamide]
6.8 nM	CC(C)(O)COc1ccc2c(C(=O)NC3CC4(C3)CC(Oc3nc5ccsc5cc3C(N)=O)C4)cnn2c1 (stereo not shown) [Example 76, 5-({6-[6-(2-hydroxy-2-methylpropoxy)pyrazolo[1,5-a]pyridine-3-amido]spiro[3.3]heptan-2-yl}oxy)thieno[3,2-b]pyridine-6-carboxamide]
634 nM	NC(=O)c1cc2sccc2nc1OC1CC2(CC(NC(=O)C3CCC(F)(F)CC3)C2)C1 (stereo not shown) [Example 77, 5-{[6-(4,4-difluorocyclohexane amido)spiro[3.3]heptan-2-yl]oxy}thieno[3,2-b]pyridine-6-carboxamide]
22.2 nM	N#Cc1cccc(C(=O)NC2CC3(C2)CC(Oc2nc4ccsc4cc2C(N)=O)C3)c1 (stereo not shown) [Example 79, 5-{[6-(3-cyanobenzamido)spiro[3.3]heptan-2-yl]oxy}thieno[3,2-b]pyridine-6-carboxamide]
323 nM	NC(=O)c1cc2c(nc1OC1CC3(CC(NC(=O)c4cnn5ccccc45)C3)C1)CCOC2 (stereo not shown) [Example 81, 2-[(6-{pyrazolo[1,5-a]pyridine-3-amido}spiro[3.3]heptan-2-yl)oxy]-5H,7H,8H-pyrano[4,3-b]pyridine-3-carboxamide]
20 nM	CC(C)(O)COc1ccc2c(C(=O)NC3CC4(C3)CC(Oc3nc5c(cc3C(N)=O)COCC5)C4)cnn2c1 (stereo not shown) [Example 82, N-[6-({3-carbamoyl-5H,7H,8H-pyrano[4,3-b]pyridin-2-yl}oxy)spiro[3.3]heptan-2-yl]-6-(2-hydroxy-2-methylpropoxy) pyrazolo[1,5-a]pyridine-3-carboxamide]
9.7 nM	N#Cc1cccc(C(=O)N[C@H]2C[C@]3(C2)C[C@H](Oc2nc4ccsc4cc2C(N)=O)C3)c1 (stereo partly drawn) [Example 83, 5-{[(aR)-6-(3-cyanobenzamido)spiro[3.3]heptan-2-yl]oxy}thieno[3,2-b]pyridine-6-carboxamide]
2.2 nM	CC(C)(O)COc1ccc2c(C(=O)N[C@H]3C[C@]4(C3)C[C@H](Oc3nc5ccsc5cc3C(N)=O)C4)cnn2c1 (stereo partly drawn) [Example 84, 6-(2-hydroxy-2-methylpropoxy)-N-[(aR)-6-({6-carbamoylthieno[3,2-b]pyridin-5-yl}oxy)spiro[3.3]heptan-2-yl]pyrazolo[1,5-a]pyridine-3-carboxamide]

Further lines, the compound ahead of its results:

Compound	IC50
NC(=O)c1cn(C(F)F)nc1O[C@H]1C[C@@]2(C[C@H](NC(=O)c3cnn4cc(OCC(F)(F)F)ccc34)C2)C1 (stereo partly drawn) [Example 53, 1-(difluoromethyl)-3-{[(aR)-6-[6-(2,2,2-trifluoroethoxy)pyrazolo[1,5-a]pyridine-3-amido]spiro[3.3]heptan-2-yl]oxy}-1H-pyrazole-4-carboxamide]	22 nM
Cc1c(C(=O)N[C@H]2C[C@]3(C2)C[C@H](Oc2nn(C(F)F)cc2C(N)=O)C3)cnn1-c1ccc(C#N)cc1 (stereo partly drawn) [Example 54, 1-(4-cyanophenyl)-5-methyl-N-[(aR)-6-{[4-carbamoyl-1-(difluoromethyl)-1H-pyrazol-3-yl]oxy}spiro[3.3]heptan-2-yl]-1H-pyrazole-4-carboxamide]	253 nM
Cc1c(C(=O)N[C@H]2C[C@]3(C2)C[C@H](Oc2nn(C(F)F)cc2C(N)=O)C3)cnn1-c1ccc(Cl)cc1 (stereo partly drawn) [Example 55, 1-(4-chlorophenyl)-5-methyl-N-[(aR)-6-{[4-carbamoyl-1-(difluoromethyl)-1H-pyrazol-3-yl]oxy}spiro[3.3]heptan-2-yl]-1H-pyrazole-4-carboxamide]	78.3 nM
NC(=O)c1cn(C2CC2)nc1O[C@H]1C[C@@]2(C[C@H](NC(=O)c3cnn4cc(OCC(F)(F)F)ccc34)C2)C1 (stereo partly drawn) [Example 56, 1-cyclopropyl-3-{[(aR)-6-[6-(2,2,2-trifluoroethoxy)pyrazolo [1,5-a]pyridine-3-amido]spiro[3.3]heptan-2-yl]oxy}-1H-pyrazole-4-carboxamide]	53.2 nM
NC(=O)c1cn(C2CC2)nc1O[C@H]1C[C@@]2(C[C@H](NC(=O)c3cnn4cc(OCC(F)F)ccc34)C2)C1 (stereo partly drawn) [Example 57, 1-cyclopropyl-3-{[(aR)-6-[6-(2,2-difluoroethoxy)pyrazolo[1,5-a]pyridine-3-amido]spiro[3.3]heptan-2-yl]oxy}-1H-pyrazole-4-carboxamide]	15.9 nM
NC(=O)c1cn(C2CC2)nc1O[C@H]1C[C@@]2(C[C@H](NC(=O)c3nc(C(F)(F)F)n4ccccc34)C2)C1 (stereo partly drawn) [Example 58, 1-cyclopropyl-3-{[(aR)-6-[3-(trifluoromethyl)imidazo[1,5-a]pyridine-1-amido]spiro[3.3]heptan-2-yl]oxy}-1H-pyrazole-4-carboxamide]	204 nM
NC(=O)c1cn(C2CC2)nc1O[C@H]1C[C@@]2(C[C@H](NC(=O)c3nc(C(F)(F)F)n4cc(-c5ccc(F)nc5)ccc34)C2)C1 (stereo partly drawn) [Example 59, 1-cyclopropyl-3-{[(aR)-6-[6-(6-fluoropyridin-3-yl)-3-(trifluoromethyl)imidazo[1,5-a]pyridine-1-amido]spiro[3.3]heptan-2-yl]oxy}-1H-pyrazole-4-carboxamide]	5.3 nM
NC(=O)c1cn(C2CC2)nc1O[C@H]1C[C@@]2(C[C@H](NC(=O)c3nc(C(F)(F)F)n4cc(Br)ccc34)C2)C1 (stereo partly drawn) [Example 60, 1-cyclopropyl-3-{[(aR)-6-[6-bromo-3-(trifluoromethyl)imidazo[1,5-a]pyridine-1-amido]spiro[3.3]heptan-2-yl]oxy}-1H-pyrazole-4-carboxamide]	35.5 nM
NC(=O)c1sc(C2CC2)nc1O[C@H]1C[C@@]2(C[C@H](NC(=O)c3cnn4cc(OCC(O)(C(F)(F)F)C(F)(F)F)ccc34)C2)C1 (stereo partly drawn) [Example 61, 2-cyclopropyl-4-{[(aR)-6-{6-[3,3,3-trifluoro-2-hydroxy-2-(trifluoromethyl)propoxy]pyrazolo[1,5-a]pyridine-3-amido}spiro[3.3]heptan-2-yl]oxy}-1,3-thiazole-5-carboxamide]	55.5 nM
NC(=O)c1sc(C2CC2)nc1O[C@H]1CC2(C[C@H](NC(=O)c3cnn4cc(OCC(F)(F)F)ccc34)C2)C1 (stereo partly drawn) [Example 62, 2-cyclopropyl-4-{[(aR)-6-[6-(2,2,2-trifluoroethoxy)pyrazolo [1,5-a]pyridine-3-amido]spiro[3.3]heptan-2-yl]oxy}-1,3-thiazole-5-carboxamide]	11.6 nM
NC(=O)c1sc(C2CC2)nc1O[C@H]1C[C@@]2(C[C@H](NC(=O)c3nc(C(F)(F)F)n4cc(-c5ccc(F)nc5)ccc34)C2)C1 (stereo partly drawn) [Example 63, 2-cyclopropyl-4-{[(aR)-6-[6-(6-fluoropyridin-3-yl)-3-(trifluoromethyl)imidazo[1,5-a]pyridine-1-amido]spiro[3.3]heptan-2-yl]oxy}-1,3-thiazole-5-carboxamide]	6.1 nM
NC(=O)c1sc(C2CC2)nc1O[C@H]1C[C@@]2(C[C@H](NC(=O)c3nc(C(F)(F)F)n4ccccc34)C2)C1 (stereo partly drawn) [Example 64, 2-cyclopropyl-4-{[(aR)-6-[3-(trifluoromethyl)imidazo[1,5-a]pyridine-1-amido]spiro[3.3]heptan-2-yl]oxy}-1,3-thiazole-5-carboxamide]	11.4 nM
Cc1c(C(=O)N[C@H]2C[C@]3(C2)C[C@H](Oc2nn(C4CC4)cc2C(N)=O)C3)cnn1-c1ccccc1 (stereo partly drawn) [Example 65, 1-cyclopropyl-3-{[(aR)-6-(5-methyl-1-phenyl-1H-pyrazole-4-amido)spiro[3.3]heptan-2-yl]oxy}-1H-pyrazole-4-carboxamide]	141 nM
Cc1c(C(=O)N[C@H]2C[C@]3(C2)C[C@H](Oc2nn(C4CC4)cc2C(N)=O)C3)cnn1-c1ccc(F)cc1F (stereo partly drawn) [Example 66, 1-cyclopropyl-3-{[(aR)-6-[1-(2,4-difluorophenyl)-5-methyl-1H-pyrazole-4-amido]spiro[3.3]heptan-2-yl]oxy}-1H-pyrazole-4-carboxamide]	225 nM
Cc1c(C(=O)N[C@H]2C[C@]3(C2)C[C@H](Oc2nc(C4CC4)sc2C(N)=O)C3)cnn1-c1ccc(F)cc1F (stereo partly drawn) [Example 67, 2-cyclopropyl-4-{[(aR)-6-[1-(2,4-difluorophenyl)-5-methyl-1H-pyrazole-4-amido]spiro[3.3]heptan-2-yl]oxy}-1,3-thiazole-5-carboxamide]	142 nM
Cc1c(C(=O)N[C@H]2C[C@]3(C2)C[C@H](Oc2nc(C4CC4)sc2C(N)=O)C3)cnn1-c1ccccc1 (stereo partly drawn) [Example 68, 2-cyclopropyl-4-{[(aR)-6-(5-methyl-1-phenyl-1H-pyrazole-4-amido)spiro[3.3]heptan-2-yl]oxy}-1,3-thiazole-5-carboxamide]	108 nM
CC(C)(O)COc1ccc2c(C(=O)N[C@H]3C[C@]4(C3)C[C@H](Oc3nn(C5CC5)cc3C(N)=O)C4)cnn2c1C1CC1 (stereo partly drawn) [Example 69, 1-cyclopropyl-3-({(aR)-6-[7-cyclopropyl-6-(2-hydroxy-2-methylpropoxy)pyrazolo [1,5-a]pyridine-3-amido]spiro[3.3]heptan-2-yl}oxy)-1H-pyrazole-4-carboxamide]	4.5 nM
Cc1nc(O[C@H]2C[C@@]3(C[C@H](NC(=O)c4cnn5cc(OCC(F)F)ccc45)C3)C2)c(C(N)=O)s1 (stereo partly drawn) [Example 70, 2-methyl-4-{[(aR)-6-[6-(2,2-difluoroethoxy)pyrazolo [1,5-a]pyridine-3-amido]spiro[3.3]heptan-2-yl]oxy}-1,3-thiazole-5-carboxamide]	45.4 nM
CC(C)(O)COc1ccc2c(C(=O)N[C@H]3C[C@]4(C3)C[C@H](Oc3nc5ccccc5cc3C(N)=O)C4)cnn2c1C1CC1 (stereo partly drawn) [Example 71, 2-(((aR)6-(7-cyclopropyl-6-(2-hydroxy-2-methylpropoxy)pyrazolo [1,5-a]pyridine-3-carboxamido)spiro [3.3]heptan-2-yl)oxy)quinoline-3-carboxamide]	8.7 nM
